Data as given in US12599578B2, “Compositions comprising enzyme-cleavable prodrugs and controlled release nafamostat and methods of use thereof” (Ensysce Biosciences Inc., priority 2021, dated 2026).
Where two headings read alike, the source gives them in different places.

What was measured:
[1] = doses of up to 200 mg KC-8 (80 mg oxycodone); cited from earlier work
[2] = Blood hydromorphone after 1, 3, 6 or 10 pills of PF329 with or without nafamostat in rats; format: in vivo; details: rats, 1, 3, 6 or 10 pills of PF329 containing nafamostat (FIG. 5)
Excerpt: The rat experiments were repeated with a derivative of hydromorphone (referred to herein as PF329), which is another known pain medication. FIGS. 4 and 5 show the blood concentration of active hydromorphone (HM) after the administration of 1, 3, 6, or 10 pills, either without or with nafamostat.

[3] = 200 mg nafamostat; cited from earlier work
[4] = Plasma oxycodone pharmacokinetics after oral KC-8 with or without nafamostat in rats; format: in vivo; details: nafamostat co-administered with an oxycodone or hydromorphone derivative
Experimental: The drug nafamostat mesylate was added to the formulations containing the KC-8 oxycodone-derivative. In the examples described herein, the terms “nafamostat mesylate” and “nafamostat” are used interchangeably.
Formulations containing both KC-8 and optionally nafamostat were administered orally to rats. The KC-8 dose was 5 mg/kg and the nafamostat concentration was 0, 0.1, 0.5, or 1 mg/kg. Plasma concentrations of active oxycodone were measured at various time intervals over 24 hours after administration.
In particular, the rats received 50 mg/kg of KC-8 and 0, 1, 5, or 10 mg/kg of nafamostat. With zero nafamostat, blood plasma concentration experienced a maximum of about 22 ng/ml at about 2 hours, wherein the concentration rapidly descended thereafter. In alignment with the data of FIG. 2, higher concentrations of nafamostat reduced the peak concentration to about 3 ng/ml at about 8 hours.

SMILES	safety and tolerability [1]	change of hydromorphone blood concentration on administering more pills [2]	safety and tolerability [3]	effect on maximum concentration of active drug in blood plasma [4]
COc1ccc2c3c1O[C@H]1C(OC(=O)N(C)CC(C)(C)CNC(=O)[C@H](CCCNC(=N)N)NC(=O)CNC(=O)CC(=O)O)=CC[C@@]4(O)[C@@H](C2)N(C)CC[C@]314 [KC-8, N-1-[3-(oxycodone-6-enol-carbonyl-methyl-amino)-2,2-dimethyl-propylamine]-arginine-glycine-malonic acid]	safe and well tolerated			
N=C(N)c1ccc2cc(OC(=O)c3ccc(N=C(N)N)cc3)ccc2c1 [nafamostat, 6-carbamimidoylnaphthalen-2-yl 4-(diaminomethyleneamino)benzoate]		little increase	safe and well tolerated	significantly reduced the maximum concentration of active drug in blood plasma
